Series [1] can be described thus: PAA demand/decay in WWTP secondary effluent (Equation 1 fit). It counts as physicochemical. Conditions: for Decay (k, 1/min) / Demand (D, mg/L): PAA only disinfection. Here is the method:
(§1) In this study, secondary effluent samples were collected and treated with PAA to achieve residual concentration*contact time (CTs) of 2.5-50 mg·min/L. PAA tests were conducted in clean glass beakers (500 or 2000 mL), and mixed continuously using a magnetic stirrer (600 rpm). Measurements of PAA residuals were collected over time, and E. coli samples were collected following PAA quenching using sodium bisulfite. The four samples collected between September 22-24 were each treated with PAA (CO=5.0 mg/L) in order to estimate the demand/decay for each sample. […] The demand/decay kinetic parameters were recalculated using the experimental results from each inactivation experiment.
PAA residuals were fitted to a demand/decay curve using Equation 1. The PAA CT (mg·min/L) was determined by integrating the area under the demand/decay curve and is calculated using Equation 2. C=(C0−D)e^−kt [Equation 1] where, • C is the concentration of PAA (mg/L) at time t (min) • C0 is initial concentration of PAA (mg/L) • D is the instantaneous demand of PAA (mg/L) • k is the decay rate constant of PAA (1/min) • t is the contact time (min)

The test system of series [2] is total coliform. To be noted: cited from earlier work.
For series [3] the following is noted: low UV fluence (13 mJ/cm^2), PAA added before or after UV irradiation; cited from earlier work.
Series [4] concerns E. coli. Briefly: Combined UV and PAA disinfection tests on WWTP secondary effluent. Type of series: cell-based, Escherichia coli. The text has this: For the UV+PAA experiment, effluent was first irradiated to UV fluences of 10, 15 or 20 mJ/cm^2, then dosed with PAA as described above. For the PAA+UV experiment, effluent was first dosed with PAA as described above. After set durations, portions of the sample were removed, PAA quenched with sodium bisulfite, and then subjected to UV fluences of 10, 15 or 20 mJ/cm^2. For the simultaneous PAA+UV experiment, two different scenarios were investigated. The first involved dosing PAA at the onset of UV irradiation, irradiating for a set duration, and then removing the sample from UV exposure and continuing to stir until a desired PAA contact time was achieved. The second scenario involved first dosing PAA and allowing it to stir for a period prior to subjecting it to UV irradiation.
Three distinct scenarios were performed with respect to testing the combined UV and PAA disinfection processes: UV prior to PAA (UV→PAA), PAA prior to UV (PAA→UV), simultaneous UV and PAA (UV+PAA). For the UV→PAA tests, UV fluences of 10, 15, and 20 mJ/cm^2 were applied prior to PAA addition, and PAA CTs ranged from 5-25 mg·min/L. Each of FIGS. 14-26 illustrates the results for viable E. coli as a function of PAA CT exposure with different levels of UV fluence applied, prior to PAA treatment.

The subject of series [5] is E. coli. Briefly: E. coli inactivation by PAA alone in WWTP secondary effluent (bench test). It counts as cell-based, Escherichia coli. As to the method:
as §1
[formula] where, • CT is the integral PAA dose (concentration*contact time); mg·min/L (Santoro et al., 2015) PAA and UV Disinfection Kinetics
To develop an disinfection kinetic model, the concentration of viable for E. coli can be plotted against either PAA—CT dose or UV fluence and the data fitted using the double exponential inactivation model, described in Equation 3. […]
The E. coli inactivation kinetics by PAA was calculated for each sample by plotting the viable concentration of E. coli on a log scale (y-axis) against the PAA—CT dose (x-axis), and is shown in FIG. 11. […]

SMILES strings stand for the structures. “Also recorded” adds a separate entry of the source.

For `CC(=O)OO` [PAA, peracetic acid], the “Decay (k, 1/min)” value in series [1] (sample Sept. 22 - AM) turned out to be 0.063 min⁻¹; in series [1] (sample Sept. 22 - PM), 0.057 min⁻¹; in series [1] (sample Sept. 24 - AM), 0.056 min⁻¹; in series [1] (sample Sept. 24 - PM), 0.058 min⁻¹. For the same compound, the “Demand (D, mg/L)” value came out at 3.58 mg/L in series [1] (sample Sept. 22 - AM), 2.60 mg/L in series [1] (sample Sept. 22 - PM), 3.50 mg/L in series [1] (sample Sept. 24 - AM) and 2.91 mg/L in series [1] (sample Sept. 24 - PM). The decay rates result in series [1] (all samples) is listed as “ca. 0.060 l/min”. Besides, the figures for the PAA demand result in series [1] (samples collected in the afternoon) and in series [1] (samples collected in the morning) were “ca. 2.75 mg/L” and “ca. 3.5 mg/L”, respectively. In series [2] (PAA 2 mg/L applied immediately before UV fluence of 192 mJ/cm^2), the “inactivation of total coliform” value is listed as “over 4 log”. Also, the “attainment of target disinfection levels” value in series [2] (PAA concentration between 2 and 8 mg/L, alone) was “unable to reach the target disinfection levels”. Moreover, the “synergistic benefit of PAA combined with UV” value in series [3] is recorded as “no synergistic benefit observed”. Further, the “attainment of E. coli disinfection targets” value in series [4] (PAA prior to UV (PAA→UV), PAA CT 10-23 mg·min/L, UV 10, 15, 20 mJ/cm^2) was “did NOT always result in the geometric mean or maximum disinfection targets being met”; in series [4] (UV prior to PAA (UV→PAA), UV 10, 15, 20 mJ/cm^2, PAA CT 5-25 mg·min/L) it was “both the maximum and geometric mean disinfection targets being met for at least one combination of fluence and CT; also recorded: consistently met disinfection targets”; in series [4] (simultaneous UV+PAA, UV 10, 15, 20 mJ/cm^2, PAA CT 15-30 mg·min/L), “could not achieve the geomean or maximum disinfection targets”. Also, the “PAA CT dose required to meet disinfection target” value in series [5] (target 63 MPN/100 mL (half the 30-day geomean permit), model from all data) was 49.2 mg·min/L; in series [5] (target 244 MPN/100 mL (half the daily maximum permit), model from poorest inactivation data), 36.0 mg·min/L.

The values above are taken from patent publication US10947129B2, “Fluid disinfection with ultraviolet radiation and a chemical disinfectant” (Trojan Technologies, priority 2015, dated 2021).
